Measured values: patent US20260215422A1, “HERBICIDAL COMPOSITIONS” (SYNGENTA CROP PROTECTION AG, priority 2022, published 2026)

Experiments:
[1] = system: RW478-16; test: Additional testing of Group 12 herbicides with other HPPD inhibitor herbicides (Table 7), Colby; format: in vivo, Amaranthus sp. (AMAPA); conditions: for Observed Product 1-(Group 12): Group 12 herbicide alone 15.8 g/ha
From the text: (§1) When active ingredients are combined, the activity to be expected (E) for any given active ingredient combination obeys the so-called Colby Formula and can be calculated as follows (Colby, S. R., Calculating synergistic and antagonistic responses of herbicide combination, Weeds, Vol. 15, pages 20-22; 1967): • ppm=milligrams of active ingredient (a.i.) per liter • X=% action by first active ingredient using p ppm of the active ingredient • Y=% action by second active ingredient using q ppm of the active ingredient.
(§2) According to Colby, the expected action of active ingredients A+B using p+q ppm of active ingredient is represented by the following formula:
(§3) [formula] • If the action actually observed (O) is greater than the expected action E then the action of the combination is super-additive, i.e. there is a synergistic effect. In mathematical terms, synergism corresponds to a positive value for the difference of (O-E). In the case of purely complementary addition of activities (expected activity), said difference (O-E) is zero. A negative value of said difference (O-E) signals a loss of activity compared to the expected activity.
(§4) Additional testing within the scope of disclosure was performed using other HPPD inhibitor herbicides and Group 12 herbicides.

[2] = system: S129; test: as above; format: in vivo, Amaranthus sp. (AMAPA); conditions: for Observed Product 1-(Group 12): Group 12 herbicide alone 15.8 g/ha
From the text: as §1, §2, §3, §4

[3] = system: Group 27 resistant AMAPA; test: Greenhouse preemergence trial, % control at 29 days after application; format: in vivo, Palmer amaranth
[4] = system: HPPD resistant AMATA; test: Field trial of dent corn, control 34 days after application; format: in vivo, common waterhemp, Amaranthus rudis Sauer; conditions: 70 g ai/ha diflufenican
Description: Diflufenican, was already very active on HPPD-R AMAPA providing 98% control alone at 35 g ai/ha, the rate used in mixture with MST+BIR making it difficult to determine if there was synergy between the herbicides. Nevertheless, additional data regarding diflufenican and MST+BIR was obtained during field trials of dent corn.
During the field trial, HPPD resistant AMATA (common waterhemp, Amaranthus rudis Sauer) was tested as follows: • 1) 70 g ai/ha diflufenican—providing 55% control • 2) 202 g ai/ha MST+50 g ai/ha BIR—providing 30% control • 3) 70 g ai/ha diflufenican+202 g ai/ha MST+50 g ai/ha BIR—providing 92% control.
The results were collected 34 days after application. The inclusion of a Group 12 herbicide with at least one HPPD-inhibitor, specifically MST+BIR, provided surprising control of HPPD-resistant weeds.

[5] = system: HPPD-resistant (RW478-16) Amaranthus sp. (AMAPA); test: Pre-emergent synergy test of DFF with MST + BIR (Tables 1-3), Colby; format: in vivo; conditions: pre-emergence, 528 h, 22 days after treatment, read-out: Activity (% control) (RW478-16)
From the text: as §1, §2, §3
(§5) Synergy was further tested for in sensitive (S-129) and HPPD-resistant (RW478-16) Amaranthus sp. (AMAPA) in pre-emergent tests according to the treatments in Table 1 below.
(§6) Dose responses rates were calculated for the treatments at 22 days after treatment which are provided in FIGS. 3 and 4, and further summarized in Table 2.

[6] = system: sensitive (S-129) Amaranthus sp. (AMAPA); test: as above; format: in vivo; conditions: pre-emergence, 528 h, 22 days after treatment, read-out: Activity (% control) (S-129)
From the text: as §1, §2, §3, §5, §6

[7] = system: HPPD-resistant (RW478-16) Amaranthus sp. (AMAPA); test: Pre-emergent synergy test of PIC with MST + BIR (Tables 4-6), Colby; format: in vivo; conditions: 22 days after treatment
From the text: as §1, §2, §3, §5
(§7) Similar tests were performed with picolinafen (PIC) and mesotrione+bicyclopyrone (MST+BIR), as summarized by Table 4.

[8] = system: sensitive (S-129) Amaranthus sp. (AMAPA); test: as above; format: in vivo; conditions: 22 days after treatment
From the text: as §1, §2, §3, §5, §7

[9] = (IFT 12.3) g/ha without Group 12
[10] = (MST 25.3) g/ha without Group 12
[11] = (BIR 6.3) g/ha without Group 12

For CCC(Oc1ccc(F)c(C(F)(F)F)c1)C(=O)NCc1ccccc1 (centres unmarked) [BFB, beflubutamid], the “Observed Product 1-(Group 12)” value [1] was 37% and the “Observed Product 1-(Group 12)” value [2] was 67%.

With O=C(Nc1ccc(F)cc1F)c1cccnc1Oc1cccc(C(F)(F)F)c1 [DFF, diflufenican] the “% control of HPPD-R AMAPA” value ([3]; alone at 35 g ai/ha) was 98%, the “% control of HPPD resistant AMATA” value [4] was 55% and the inhibition at 1.58 g/ha ([5]; DFF 1.58 g ai/ha alone) was 77%. It also gave an inhibition at 2.11 g/ha ([5]; DFF 2.11 g ai/ha alone) of 53%, an inhibition at 3.16 g/ha ([5]; DFF 3.16 g ai/ha alone) of 45% and an inhibition at 7.9 g/ha ([5]; DFF 7.9 g ai/ha alone) of 22%. For the same compound, the inhibition at 15.8 g/ha ([5]; DFF 15.8 g ai/ha alone) was 18%, the inhibition at 31.6 g/ha ([5]; DFF 31.6 g ai/ha alone) was 3% and the inhibition at 1.58 g/ha ([6]; DFF 1.58 g ai/ha alone) was 100%. It also gave an inhibition at 2.11 g/ha ([6]; DFF 2.11 g ai/ha alone) of 94%, an inhibition at 3.16 g/ha ([6]; DFF 3.16 g ai/ha alone) of 72% and an inhibition at 7.9 g/ha ([6]; DFF 7.9 g ai/ha alone) of 23%. For the same compound, the inhibition at 15.8 g/ha ([6]; DFF 15.8 g ai/ha alone) was 10%, the inhibition at 31.6 g/ha ([6]; DFF 31.6 g ai/ha alone) was 13% and the “Observed Product 1-(Group 12)” value [1] was 70%. For the same compound, the “Observed Product 1-(Group 12)” value [2] was 99%.

For O=C1C(Cl)C(CCl)CN1c1cccc(C(F)(F)F)c1 (centres unmarked) [FLU, flurochloridone], the “Observed Product 1-(Group 12)” value [1] was 27% and the “Observed Product 1-(Group 12)” value [2] was 57%.

In the case of CS(=O)(=O)c1cc(C(F)(F)F)ccc1C(=O)c1cnoc1C1CC1 [IFT, isoxaflutole], the “Observed Product 2-(HPPDs)” value [1, 9] is reported as 37% and the “Observed Product 2-(HPPDs)” value [2, 9] is reported as 98%.

In the case of CS(=O)(=O)c1ccc(C(=O)C2C(=O)CCCC2=O)c([N+](=O)[O-])c1 [MST, mesotrione], the “Observed Product 2-(HPPDs)” value [1, 10] is reported as 28% and the “Observed Product 2-(HPPDs)” value [2, 10] is reported as 100%.

In the case of O=C(Nc1ccc(F)cc1)c1cccc(Oc2cccc(C(F)(F)F)c2)n1 [PIC, picolinafen], the “control of HPPD-Resistant AMAPA” value ([3]; Picolinafen 35 g ai/ha alone) is reported as “did not adequately control”, the “Activity (% control) (RW478-16)” value ([7]; PIC 1.58 g ai/ha alone) is reported as 0% and the “Activity (% control) (RW478-16)” value ([7]; PIC 2.11 g ai/ha alone) is reported as 7%. The “Activity (% control) (RW478-16)” value ([7]; PIC 3.16 g ai/ha alone) was 10%, the “Activity (% control) (RW478-16)” value ([7]; PIC 7.9 g ai/ha alone) was 10% and the “Activity (% control) (RW478-16)” value ([7]; PIC 15.8 g ai/ha alone) was 40%. The “Activity (% control) (RW478-16)” value ([7]; PIC 31.6 g ai/ha alone) was 53%, the “Activity (% control) (S-129)” value ([8]; PIC 1.58 g ai/ha alone) was 10% and the “Activity (% control) (S-129)” value ([8]; PIC 2.11 g ai/ha alone) was 22%. The “Activity (% control) (S-129)” value ([8]; PIC 3.16 g ai/ha alone) was 17%, the “Activity (% control) (S-129)” value ([8]; PIC 7.9 g ai/ha alone) was 30% and the “Activity (% control) (S-129)” value ([8]; PIC 15.8 g ai/ha alone) was 53%. For the same compound, the “Activity (% control) (S-129)” value ([8]; PIC 31.6 g ai/ha alone) was 72%, the “Observed Product 1-(Group 12)” value [1] was 28% and the “Observed Product 1-(Group 12)” value [2] was 77%.

With bicyclopyrone [BIR] the “Observed Product 2-(HPPDs)” value [1, 11] was 20% and the “Observed Product 2-(HPPDs)” value [2, 11] was 57%.
